According to patent publication US20250320213A1, “Nitrogen-Containing Heterocyclic Compounds” (Pfizer Inc., priority 2024, published 2025):
Where two headings read alike, the source gives them in different places.

Tests used:
STAT6 = biological target: T1, STAT6 (Homo sapiens, UniProt P42226); assay: STAT6 Reporter Luciferase Assay (IL-13 stimulated HaCaT keratinocyte NanoLuc reporter cells); format: cell-based; details: read-out: Reporter EC50
T1 construct: stably transfected HaCaT keratinocyte cell line, which expresses NanoLuc luciferase reporter gene under the transcriptional control of the STAT6 responsive promoter; endogenous in cells; host or cells: HaCaT keratinocyte reporter cell line (stably transfected with a NanoLuc reporter)
T1 sequence (P42226 1-847): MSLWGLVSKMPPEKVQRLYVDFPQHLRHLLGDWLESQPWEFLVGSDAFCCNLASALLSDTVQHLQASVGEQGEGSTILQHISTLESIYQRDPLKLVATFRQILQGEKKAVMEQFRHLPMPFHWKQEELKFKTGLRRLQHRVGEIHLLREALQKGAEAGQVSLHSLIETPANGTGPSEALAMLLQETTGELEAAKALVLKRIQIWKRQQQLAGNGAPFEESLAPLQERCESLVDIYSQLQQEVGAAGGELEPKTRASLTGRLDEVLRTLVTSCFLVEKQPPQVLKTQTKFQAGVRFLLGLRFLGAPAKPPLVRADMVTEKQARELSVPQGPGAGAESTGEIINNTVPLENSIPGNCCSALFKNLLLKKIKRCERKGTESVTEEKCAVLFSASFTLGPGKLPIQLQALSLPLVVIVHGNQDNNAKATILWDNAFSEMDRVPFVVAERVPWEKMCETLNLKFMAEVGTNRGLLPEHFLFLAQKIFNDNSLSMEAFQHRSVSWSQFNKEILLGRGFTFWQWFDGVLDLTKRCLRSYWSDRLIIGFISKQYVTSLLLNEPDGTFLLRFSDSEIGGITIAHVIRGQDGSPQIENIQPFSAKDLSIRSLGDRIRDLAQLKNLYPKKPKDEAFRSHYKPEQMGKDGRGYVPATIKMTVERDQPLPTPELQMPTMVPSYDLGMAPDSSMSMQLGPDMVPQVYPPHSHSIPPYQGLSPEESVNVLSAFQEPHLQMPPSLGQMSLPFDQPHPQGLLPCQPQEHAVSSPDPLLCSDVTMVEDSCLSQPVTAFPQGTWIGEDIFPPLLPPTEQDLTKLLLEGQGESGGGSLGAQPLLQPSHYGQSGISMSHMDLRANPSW
Outline: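 HaCaT IL-13Ra2-promoter NanoLuc reporter; cpd 2 h 37 °C in DMEM/2% HI FBS; IL-13 0.12 nM final, 4 h; Nano-Glo luminescence.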

[1] = test system: CCL17 secretion in peripheral human whole blood; assay: Human Whole Blood (HWB) CCL17 TR-FRET Assay (IL-13 stimulated CCL17 secretion); format: cell-based
Method: The IC50 (half-maximal concentration required for inhibition) of compounds for the inhibition of CCL17 secretion in peripheral human whole blood, stimulated through the IL-13-IL-13 receptor/IL-4 receptor pathway was evaluated with a TR-FRET sandwich ELISA CCL17 (TARC) Assay Kit (Bioauxilium).
Test compounds (solubilized and serially diluted in DMSO, in an 11 point, 3-fold dilution series in duplicate) were spotted, 80 nL per well, into a 384 well v-bottom polypropylene plate. Human whole blood was collected from a peripheral vein, 714 units of sodium heparin was added for every 50 mL of blood collected. Sixty μL per well of blood was added to the compound plate. The blood plate was incubated for two hours at 37° C. After two hours, CCL17 production was stimulated with the addition of 20 μL per well of IL13 (R&D Systems) in HBSS with calcium and magnesium, with a final concentration of 10 ng/mL IL13. The plate containing blood, compound, and IL-13 was incubated at 37° C. for 48 hours, to allow for CCL17 production. After 48 hours, the plate was centrifuged at 1,500 revolutions per minute (RPM) for 7 minutes, with no braking. The CCL17 TR-FRET Assay Kit detection reagent was prepared according to kit instructions and 4 μL per well of the antibody cocktail was added to a 384-well white low volume non-binding coated plate (Corning). Sixteen μL of serum from the centrifuged blood plate was transferred to the detection plate containing the TR-FRET antibody cocktail. The plate was centrifuged briefly, then covered and incubated 16 hours at room temperature. The plate was then read on an EnVision 2105 multilabel reader (PerkinElmer) with settings for TR-FRET Ratio=10,000×(fluorescence intensity 665 nm/fluorescence intensity 615 nm).

[2] = IL-13 stimulated HaCaT STAT6 NanoLuc reporter cells
[3] = Homo sapiens, 48 h, human whole blood, IL-13 stimulated
[4] = STAT6 NanoLuc luciferase reporter, IL-13 stimulated HaCaT keratinocyte cells
[5] = Homo sapiens, 48 h, inhibition of CCL17 secretion in human whole blood, 10 ng/mL IL13, 48 hours

SMILES | EC50 (STAT6; [2]) | other results
CN(C)C(=O)Nc1ccc(CNC(=O)c2nn(C3CCCC3)c3c2CN(c2ccc(C(=O)N(C)C)cn2)CC3)cc1 [Example 264, 1-cyclopentyl-5-(5-(dimethylcarbamoyl)pyridin-2-yl)-N-(4-(3,3-dimethylureido)benzyl)-4,5,6,7-tetrahydro-1H-pyrazolo[4,3-c]pyridine-3-carboxamide] | 0.007 µM | IC50 [1, 3]: 0.131 µM
CC(C)n1nc(C(=O)NCc2ccc(NC(=O)N3CCC4(CC3)COC4)cc2)c2c1CCN(c1ccc(C(=O)N(C)C)cn1)C2 [Example 156, N-(4-((5-(5-(dimethylcarbamoyl)pyridin-2-yl)-1-isopropyl-4,5,6,7-tetrahydro-1H-pyrazolo[4,3-c]pyridine-3-carboxamido)methyl)phenyl)-2-oxa-7-azaspiro[3.5]nonane-7-carboxamide] |  | EC50 (STAT6; [4]): 0.006 µM; IC50 [1, 5]: 0.058 µM
CCC1CN(c2ccc(C(=O)N(C)C)cn2)Cc2c(C(=O)NCc3ccc(NC(=O)N(C)C)cc3)nn(C(C)C)c21 (single isomer, unassigned) [Example 311, rel-(R or S)-5-(5-(dimethylcarbamoyl)pyridin-2-yl)-N-(4-(3,3-dimethylureido)benzyl)-7-ethyl-1-isopropyl-4,5,6,7-tetrahydro-1H-pyrazolo[4,3-c]pyridine-3-carboxamide] | 0.001 µM | IC50 ([1]; human whole blood, IL-13 stimulated, 48 hours): 0.011 µM
CC(C)n1nc(C(=O)NCc2ccc(NC(=O)N(C)C)cc2)c2c1CCN(c1ccc(C3COC3)cn1)C2 [Example 338, N-(4-(3,3-Dimethylureido)benzyl)-1-isopropyl-5-(5-(oxetan-3-yl)pyridin-2-yl)-4,5,6,7-tetrahydro-1H-pyrazolo[4,3-c]pyridine-3-carboxamide] | 3.11 µM | IC50 [1, 3]: > 30 µM
CNC(=O)Nc1ccc(CNC(=O)c2nn(C(C)C)c3c2CN(c2ccc(C(=O)NC)cn2)CC3)cc1 [Example 454, 1-isopropyl-5-(5-(methylcarbamoyl)pyridin-2-yl)-N-(4-(3-methylureido)benzyl)-4,5,6,7-tetrahydro-1H-pyrazolo[4,3-c]pyridine-3-carboxamide] | 0.128 µM | IC50 [1, 3]: 0.72 µM
CC(C)n1nc(C(=O)NCc2ccc(C(N)=O)cc2)c2c1[C@@H](C)CN(c1ncc(-c3nccn3C)cn1)C2 [Example 719, (S)-N-(4-carbamoylbenzyl)-1-isopropyl-7-methyl-5-(5-(1-methyl-1H-imidazol-2-yl)pyrimidin-2-yl)-4,5,6,7-tetrahydro-1H-pyrazolo[4,3-c]pyridine-3-carboxamide] | 1 µM | IC50 ([1]; Homo sapiens, 48 h, human whole blood, IL-13 10 ng/mL): 3.69 µM
CC(C)n1nc(C(=O)NCc2ccc(NC(=O)N3CCC(CC4CCNCC4)CC3)cc2)c2c1[C@@H](C)CN(c1ccc(C(=O)N(C)C)cc1)C2 [Example 624, (S)-5-(4-(dimethylcarbamoyl)phenyl)-1-isopropyl-7-methyl-N-(4-(4-(piperidin-4-ylmethyl)piperidine-1-carboxamido)benzyl)-4,5,6,7-tetrahydro-1H-pyrazolo[4,3-c]pyridine-3-carboxamide] | 0.001 µM | IC50 ([1]; Homo sapiens, 48 h, human whole blood, 10 ng/mL IL13, 48 hours): 0.018 µM
CO[C@@H]1CN(C(=O)Nc2ccc(CNC(=O)c3nn(C(C)C)c4c3CN(c3ccc(C(=O)N(C)C)cn3)CC4)cc2)C[C@H]1F (racemic) [Example 171, rac-5-(5-(dimethylcarbamoyl)pyridin-2-yl)-N-(4-((3R,4R)-3-fluoro-4-methoxypyrrolidine-1-carboxamido)benzyl)-1-isopropyl-4,5,6,7-tetrahydro-1H-pyrazolo[4,3-c]pyridine-3-carboxamide] |  | EC50 (STAT6; [4]): 0.005 µM; IC50 [1, 5]: 0.057 µM
CC(C)n1nc(C(=O)NCc2ccc(NC(=O)N3C[C@H]4CC[C@@H](C3)N4)c(F)c2)c2c1[C@@H](C)CN(c1ccc(C(=O)N(C)C)cc1)C2 (mixture of isomers) [Example 573, (S)-N-(4-((1RS,5SR)-3,8-diazabicyclo[3.2.1]octane-3-carboxamido)-3-fluorobenzyl)-5-(4-(dimethylcarbamoyl)phenyl)-1-isopropyl-7-methyl-4,5,6,7-tetrahydro-1H-pyrazolo[4,3-c]pyridine-3-carboxamide] | 0.001 µM | IC50 ([1]; human whole blood, 10 ng/mL IL13, 48 hours): 0.011 µM
CC(C)n1nc(C(=O)NCc2ccc(NC(=O)N3CCN4CCCC[C@H]4C3)cc2)c2c1[C@@H](C)CN(c1ccc(C(=O)N(C)C)cc1)C2 [Example 737, (S)-N-(4-(((S)-5-(4-(dimethylcarbamoyl)phenyl)-1-isopropyl-7-methyl-4,5,6,7-tetrahydro-1H-pyrazolo[4,3-c]pyridine-3-carboxamido)methyl)phenyl)octahydro-2H-pyrido[1,2-a]pyrazine-2-carboxamide] | 0.001 µM | 
CC(C)n1nc(C(=O)NCc2ccc(NC(=O)N3CCC(C)(N(C)C)C3)c(F)c2)c2c1[C@@H](C)CN(c1ccc(C(=O)N(C)C)cc1)C2 (stereo partly drawn) [Example 679, (7S)-N-(4-(3-(dimethylamino)-3-methylpyrrolidine-1-carboxamido)-3-fluorobenzyl)-5-(4-(dimethylcarbamoyl)phenyl)-1-isopropyl-7-methyl-4,5,6,7-tetrahydro-1H-pyrazolo[4,3-c]pyridine-3-carboxamide] | 0.003 µM | 
COC1(C)CN(C(=O)c2ccc(N3CCc4c(c(C(=O)NCc5ccc(NC(=O)N(C)C)cc5)nn4C(C)C)C3)nc2)C1 [Example 226, N-(4-(3,3-dimethylureido)benzyl)-1-isopropyl-5-(5-(3-methoxy-3-methylazetidine-1-carbonyl)pyridin-2-yl)-4,5,6,7-tetrahydro-1H-pyrazolo[4,3-c]pyridine-3-carboxamide] | 1.93 µM | 
CC(C)n1nc(C(=O)NCc2ccc(NC(=O)N3CCN4CCCC[C@@H]4C3)c(F)c2)c2c1[C@@H](C)CN(c1ccc(C(=O)N(C)C)cc1)C2 [Example 687, (R)-N-(4-(((S)-5-(4-(dimethylcarbamoyl)phenyl)-1-isopropyl-7-methyl-4,5,6,7-tetrahydro-1H-pyrazolo[4,3-c]pyridine-3-carboxamido)methyl)-2-fluorophenyl)octahydro-2H-pyrido[1,2-a]lpyrazine-2-carboxamide] | 0.001 µM | 
CC(C)n1nc(C(=O)NCc2ccc(NC(=O)N(C)C)cc2)c2c1CCN(c1ccc(C(=O)N3CC[C@@H](C#N)C3)cn1)C2 [Example 297, (R)-5-(5-(3-cyanopyrrolidine-1-carbonyl)pyridin-2-yl)-N-(4-(3,3-dimethylureido)benzyl)-1-isopropyl-4,5,6,7-tetrahydro-1H-pyrazolo[4,3-c]pyridine-3-carboxamide] | 0.225 µM | 
CC(C)n1nc(C(=O)NCc2ccc(NC(=O)N(C)C)cc2)c2c1CCN(c1ccc(C(=O)N3CCc4ncncc4C3)cn1)C2 [Example 379, N-(4-(3,3-dimethylureido)benzyl)-1-isopropyl-5-(5-(5,6,7,8-tetrahydropyrido[4,3-d]pyrimidine-6-carbonyl)pyridin-2-yl)-4,5,6,7-tetrahydro-1H-pyrazolo[4,3-c]pyridine-3-carboxamide] | 0.07 µM | 
